Residues, ends and D or L forms follow the SMILES beside them.
How the values were obtained:
[1] = test system: LPS (lipopolysaccharides) from P. aeruginosa; assay: LPS binding assay, BODIPY TR cadaverine (BC) displacement; set-up: species or system Pseudomonas aeruginosa; conditions: 100% = total displacement of the dye; mean ± SEM
Procedure: Following, LPS binding affinity was monitored by a fluorometric assay which measures the competitive displacement of a cadaverine fluorescent probe (BC) by the protein and peptides. The half LPS binding affinity (ED50), defined as the AMP concentration needed to achieve half of BC displacement, and the total LPS binding affinity, expressed as a percentage, were determined (Table 4). Interaction with negatively charged surfaces of bacteria is the first step for cationic peptides to reach the bacterial membranes and exert their antimicrobial action.
LPS binding was assessed using the fluorescent probe BODIPY TR cadaverine (BC) as previously described (Pulido D. et al. Febs J 2013). BC binds strongly to native LPS, specifically recognizing the lipid A portion. When a protein that interacts with LPS is added, BC is displaced from the complex and its fluorescence is increased, decreasing its occupancy factor. LPS-binding assays were carried out in a 10 mM Hepes buffer at pH 7.5. The displacement assay was performed using a 96 well microtiter plate containing stirred mixture of either LPS (10 μg/mL) and BC (10 μM). Protein/peptides were serially diluted from 10 to 0.1 μM. Fluorescence measurements were performed on a Victor3 plate reader (Perkin Elmer, Waltham, Mass.). The protein/peptide concentration required to achieve half of total and total BC displacement was estimated from nonlinear regression analysis as previously described (Wood S. J. et al. 2004)

[2] = test system: pre-established P. aeruginosa biofilm; assay: Biofilm cell mortality, BacTiter-Glo luminescent assay; format: cell-based, Pseudomonas aeruginosa; conditions: 24 h formed biofilm; 4 h at 37° C.; 10% Triton X-100 as maximum reference; N.D. = not detected at 50 μM

| SMILES | LPS binding %max (percentage of maximum displacement) [1] [%] | Biofilm cell mortality (%max) [2] |
| --- | --- | --- |
| CC[C@H](C)[C@H](NC(=O)CNC(=O)[C@@H](NC(=O)[C@H](CCCCN)NC(=O)[C@H](CCCCN)NC(=O)[C@H](Cc1ccccc1)NC(=O)[C@H](CC(C)C)NC(=O)[C@H](CCCCN)NC(=O)[C@H](Cc1c[nH]c2ccccc12)NC(=O)[C@@H](N)CCCCN)[C@@H](C)CC)C(=O)NCC(=O)N[C@@H](C)C(=O)N[C@H](C(=O)N[C@@H](CC(C)C)C(=O)N[C@@H](CCCCN)C(=O)N[C@H](C(=O)N[C@@H](CC(C)C)C(=O)N[C@H](C(=O)N[C@H](C(=O)NCC(=O)N[C@@H](CC(C)C)C(=O)N1CCC[C@H]1C(=O)N[C@@H](C)C(=O)N[C@@H](CC(C)C)C(=O)N[C@H](C(=O)N[C@@H](CO)C(N)=O)[C@@H](C)CC)[C@@H](C)O)[C@@H](C)O)C(C)C)C(C)C [CA-M] | 69.16 ± 6.23 | – |
| CC[C@H](C)[C@H](NC(=O)[C@H](CCC(N)=O)NC(=O)CN)C(=O)N[C@H](C(=O)N[C@@H](CC(N)=O)C(=O)N[C@@H](CC(C)C)C(=O)N[C@@H](CCCCN)C(=O)N[C@@H](C)C(=O)N[C@@H](CO)C(=O)N[C@@H](CC(C)C)C(=O)N[C@@H](CC(=O)O)C(=O)N[C@@H](CC(C)C)C(=O)N[C@@H](CC(C)C)C(N)=O)[C@@H](C)CC [GL-13, GQIINLKASLDLL-NH2] (H-GQIINLKASLDLL-NH2) | 44.37 ± 3.84 | unable to perform any cell mortality |

— patent US10487117B2, “Antimicrobial peptide for nosocomial infections” (priority 2015, dated 2019)
